A word on the IC50: it is the concentration at which inhibition is half-maximal. By EC50 is commonly meant the concentration at which the effect is half-maximal.

For assay [1], the target named is T1, CB1 receptor (Homo sapiens, UniProt P21554).
T1 construct: expressed in transfected cells
As to the kind of experiment: Binding assay for CB1 agonists or inverse agonists (SK-N-MC membranes, [3H]-CP-55,940). The following applies: for IC50: Cannabinoid CB1 Receptor Binding IC50, calculated by linear regression from percent inhibition at various test concentrations; for CB1 receptor binding average percent inhibition: value shown is an average percent inhibition (footnote 5), concentration not given; for inhibition at 0.2 µM: read-out: CB1 receptor binding percent inhibition, test concentration 0.2 μM (footnote 2); for inhibition at 1 µM: read-out: CB1 receptor binding percent inhibition, test concentration 1 μM (footnote 1). In a few lines:
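Radioligand displacement: [3H]-CP-55,940 at […], 90 min at 30° C, pH 7.5 Tris buffer with 0.5 mg/mL fatty-acid-free BSA, using semi-purified membranes of human-CB1-transfected SK-N-MC cells. Bound counts collected on GF/C filters, 10 uM WIN 55,212 for non-specific; IC50 from percent inhibition over several concentrations.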

A further assay addresses T2, CB2 receptor (Homo sapiens, UniProt P34972).
T2 construct: expressed in transfected cells
As to the kind of experiment: Binding assay for CB2 agonists or inverse agonists (SK-N-MC membranes, [3H]-CP-55,940). The note with it: for CB2 receptor binding percent inhibition: test concentration not stated; for inhibition at 0.2 µM: read-out: CB2 receptor binding percent inhibition, test concentration 0.2 μM (footnote 2). In a few lines: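 IC50 came from percent-inhibition data over several compound concentrations, fitted by linear regression. Binding used semi-purified membranes of human CB2-transfected SK-N-MC cells, 90 min at 30 °C, pH 7.5 Tris-HCl with MgCl2, EDTA and BSA, then filtration and scintillation counting.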

Assay [2] deals with T1, CB1 receptor. As to the kind of experiment: cell-based. The note with it: SK-N-MC cells. In a few lines: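 Read-out is forskolin-driven CRE-β-gal reporter activity in stably transfected human-CB1 SK-N-MC cells, normalised to vehicle (100%); agonism lowers, inverse agonism raises signal. Values are EC50 (linear regression, multiple concentrations) or % change at one concentration.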

Where [3] appears, read: CB1 Receptor Functional Inverse Agonist EC50, forskolin induced β-galactosidase activity.

The structures appear in SMILES notation. Values joined by “and” are separate entries in the source; they are usually repeats but may differ in a detail not shown here. Equal values may be shown once. Read-outs that look alike come from different tables or passages of the source.

T1 sequence (P21554 whole entry): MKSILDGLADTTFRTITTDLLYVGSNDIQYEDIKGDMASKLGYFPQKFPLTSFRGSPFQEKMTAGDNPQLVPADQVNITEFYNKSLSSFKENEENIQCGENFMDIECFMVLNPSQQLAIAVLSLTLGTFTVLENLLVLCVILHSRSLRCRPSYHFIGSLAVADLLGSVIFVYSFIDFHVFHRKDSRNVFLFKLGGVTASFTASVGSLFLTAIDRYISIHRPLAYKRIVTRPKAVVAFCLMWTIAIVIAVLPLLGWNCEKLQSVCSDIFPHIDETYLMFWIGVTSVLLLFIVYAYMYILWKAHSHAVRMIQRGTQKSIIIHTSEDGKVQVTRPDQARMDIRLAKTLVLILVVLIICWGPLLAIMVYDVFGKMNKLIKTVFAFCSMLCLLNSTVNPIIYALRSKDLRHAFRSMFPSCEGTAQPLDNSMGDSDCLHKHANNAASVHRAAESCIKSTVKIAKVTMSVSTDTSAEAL
T2 sequence (P34972 whole entry): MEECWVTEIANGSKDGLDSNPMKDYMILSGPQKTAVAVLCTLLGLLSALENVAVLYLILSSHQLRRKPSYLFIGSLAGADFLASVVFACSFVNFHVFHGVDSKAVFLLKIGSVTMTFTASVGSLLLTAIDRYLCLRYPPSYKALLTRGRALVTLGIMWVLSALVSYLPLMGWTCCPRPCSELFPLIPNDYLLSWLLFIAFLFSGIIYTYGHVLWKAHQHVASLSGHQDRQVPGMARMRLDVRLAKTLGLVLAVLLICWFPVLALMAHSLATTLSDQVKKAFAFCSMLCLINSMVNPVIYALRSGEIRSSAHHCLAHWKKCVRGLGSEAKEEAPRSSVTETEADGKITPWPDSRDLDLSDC

For `O=C(NN1CCCCC1)c1nn(-c2ccc(Cl)cc2Cl)c2c1CCCCC2Cc1cccc(F)c1` (centres unmarked) [Cpd 84, 1-(2,4-dichloro-phenyl)-8-(3-fluoro-benzyl)-1,4,5,6,7,8-hexahydro-cycloheptapyrazole-3-carboxylic acid piperidin-1-ylamide], on CB1 receptor [1], the IC50 is 700 nM and the “CB1 receptor binding average percent inhibition” value worked out at 67%. Besides, at CB2 receptor, the “CB2 receptor binding percent inhibition” value is listed as 11%. The same compound had an EC50 at CB1 receptor [2] (setting [3]) of 100 nM.
Regarding `COc1ccc(/C=C2\CCCCc3c(C(=O)NN4CCCCC4)nn(-c4ccc(Cl)cc4Cl)c32)cc1` [Cpd 217, (8E)-1-(2,4-dichloro-phenyl)-8-(4-methoxy-benzylidene)-1,4,5,6,7,8-hexahydro-cycloheptapyrazole-3-carboxylic acid piperidin-1-ylamide], at CB1 receptor [1], the half-inhibitory concentration (IC50) was 60 nM and the inhibition at 0.2 µM came out at 75%. Further, the inhibition at 0.2 µM at CB2 receptor was 52%. Moreover, a half-maximal response on CB1 receptor [2] (setting [3]) (EC50) required 20 nM.
With `COC(=O)[C@@H](Cc1ccc(O)cc1)NC(=O)c1nn(-c2ccc(Cl)cc2Cl)c2c1CCCCC2Cc1cccc(Cl)c1` (stereo partly drawn) [Cpd 102, (2R)-2-{[8-(3-chloro-benzyl)-1-(2,4-dichloro-phenyl)-1,4,5,6,7,8-hexahydro-cycloheptapyrazole-3-carbonyl]-amino}-3-(4-hydroxy-phenyl)-propionic acid methyl ester], at CB1 receptor [1], the concentration for half-maximal inhibition (IC50) is 600 nM and the inhibition at 1 µM stood at 77%. In addition, the inhibition at 0.5 µM at CB1 receptor [1] (read-out: CB1 receptor binding percent inhibition, test concentration 0.5 μM (footnote 10)) is 55%. Further, on CB2 receptor, the “CB2 receptor binding percent inhibition” value came to 59%. The same compound displayed an EC50 on CB1 receptor [2] (setting [3]) of 70 nM.
For `O=C(NN1CCOCC1)c1nn(-c2ccc(Cl)cc2Cl)c2c1CCCCC2Cc1cccc(Cl)c1` (centres unmarked) [Cpd 117, 8-(3-chloro-benzyl)-1-(2,4-dichloro-phenyl)-1,4,5,6,7,8-hexahydro-cycloheptapyrazole-3-carboxylic acid morpholin-4-ylamide], the inhibition at 1 µM on CB1 receptor [1] was 44%. Besides, the “CB2 receptor binding percent inhibition” value on CB2 receptor is reported as 22%. The EC50 at CB1 receptor [2] (forskolin induced β-galactosidase activity, read-out: CB1 Receptor Functional Inverse Agonist EC50) was 300 nM.
`O=C(NN1CCCCC1)c1nn(-c2ccc(Cl)cc2Cl)c2c1CCCCC2Cc1cccc(Cl)c1` (centres unmarked) [Cpd 28, 8-(3-chloro-benzyl)-1-(2,4-dichloro-phenyl)-1,4,5,6,7,8-hexahydro-cycloheptapyrazole-3-carboxylic acid piperidin-1-ylamide]: at CB1 receptor [1], the IC50 was 100 nM and the inhibition at 1 µM amounted to 65%. Moreover, the “CB2 receptor binding percent inhibition” value on CB2 receptor amounted to 11%. Also, the response on CB1 receptor [2] (setting [3]) was half-maximal at 50 nM (EC50).
Turning to `NS(=O)(=O)c1ccc(CNC(=O)c2nn(-c3ccc(Cl)cc3Cl)c3c2CCCC/C3=C\c2ccc(Cl)cc2)cc1` [Cpd 135, (8E)-8-(4-chloro-benzylidene)-1-(2,4-dichloro-phenyl)-1,4,5,6,7,8-hexahydro-cycloheptapyrazole-3-carboxylic acid 4-sulfamoyl-benzylamide], the IC50 on CB1 receptor [1] is 50 nM. The inhibition at 0.25 µM on CB1 receptor [1] (read-out: CB1 receptor binding percent inhibition, test concentration 0.25 μM (footnote 8)) was 65%; on CB2 receptor (read-out: CB2 receptor binding percent inhibition, test concentration 0.25 μM (footnote 8)), 25%. The 50% effective concentration (EC50) at CB1 receptor [2] (setting [3]) is < 30 nM.
In the case of `C[C@@H](NC(=O)c1nn(-c2ccc(Cl)cc2Cl)c2c1CCCC/C2=C\c1ccc(F)cc1)c1ccccn1` [Cpd 225, (8E)-1-(2,4-dichloro-phenyl)-8-(4-fluoro-benzylidene)-1,4,5,6,7,8-hexahydro-cycloheptapyrazole-3-carboxylic acid [(1R)-1-pyridin-2-yl-ethyl]-amide], on CB1 receptor [1], the IC50 is 5 nM and 6 nM and 7 nM; the inhibition at 0.2 µM amounted to 90%; the “CB1 receptor binding average percent inhibition” value is 96%. The “CB1 receptor binding percent inhibition” value on CB1 receptor [1] (test concentration 0.2 μM (footnote 2), 0.2 µM) was 89%. In addition, at CB2 receptor, the inhibition at 0.2 µM was found to be 6%. The inhibition at 1 µM on CB2 receptor (read-out: CB2 receptor binding percent inhibition, test concentration 1 μM (footnote 1)) came out at 16%. For the same compound, the 50% effective concentration (EC50) on CB1 receptor [2] (setting [3]) was determined as 1 nM.
As to `O=C(N[C@@H]1CCc2ccccc21)c1nn(-c2ccc(Cl)cc2Cl)c2c1CCCC/C2=C\c1ccc(F)cc1` [Cpd 207, (8E)-1-(2,4-dichloro-phenyl)-8-(4-fluoro-benzylidene)-1,4,5,6,7,8-hexahydro-cycloheptapyrazole-3-carboxylic acid (1R)-indan-1-ylamide], the IC50 at CB1 receptor [1] was 20 nM. The inhibition at 0.2 µM stood at 90% at CB1 receptor [1] and 1% on CB2 receptor. Further, on CB1 receptor [2] (setting [3]), the midpoint of the response, the EC50, lay at 7 nM.
On to `COc1ccc(/C=C2\CCCCc3c(C(=O)N[C@@H](C)c4ccccc4)nn(-c4ccc(Cl)cc4Cl)c32)cc1` [Cpd 213, (8E)-1-(2,4-dichloro-phenyl)-8-(4-methoxy-benzylidene)-1,4,5,6,7,8-hexahydro-cycloheptapyrazole-3-carboxylic acid [(1S)-1-phenyl-ethyl]-amide], for which, at CB1 receptor [1], the IC50 is 60 nM and the inhibition at 0.2 µM was found to be 71%. The inhibition at 0.2 µM on CB2 receptor came to 19%. At CB1 receptor [2] (setting [3]), this compound gave an EC50 of 10 nM.
On to `O=C(NCc1ccncc1)c1nn(-c2ccc(Cl)cc2Cl)c2c1CCCC/C2=C\c1ccc(Cl)cc1` [Cpd 156, (8E)-8-(4-chloro-benzylidene)-1-(2,4-dichloro-phenyl)-1,4,5,6,7,8-hexahydro-cycloheptapyrazole-3-carboxylic acid (pyridin-4-ylmethyl)-amide], for which the inhibition at 0.2 µM was determined as 50% at CB1 receptor [1] and 36% on CB2 receptor. In addition, it took 90 nM to reach a half-maximal effect on CB1 receptor [2] (setting [3]) (EC50).
In the case of `O=C(N[C@@H]1c2ccccc2C[C@@H]1O)c1nn(C2CCCCC2)c2c1CCCCC2Cc1cccc(F)c1` (single isomer, unassigned) [Cpd 114, (8R*)-1-cyclohexyl-8-(3-fluoro-benzyl)-1,4,5,6,7,8-hexahydro-cycloheptapyrazole-3-carboxylic acid [(1R,2S)-2-hydroxy-indan-1-yl]-amide], the “CB1 receptor binding percent inhibition” value at CB1 receptor [1] (test concentration 1 μM (footnote 1), 1 µM) was “^(1)17%”. Besides, on CB2 receptor, the “CB2 receptor binding percent inhibition” value worked out at 47%. The same compound yielded an EC50 on CB1 receptor [2] (setting [3]) of 40 nM.
On to `CCOC(=O)[C@H]1C2C=CC(C2)[C@H]1NC(=O)c1nn(-c2ccc(Cl)cc2Cl)c2c1CCCCC2Cc1cccc(F)c1` (stereo partly drawn) [Cpd 79, (2S,3R)-3-{[1-(2,4-dichloro-phenyl)-8-(3-fluoro-benzyl)-1,4,5,6,7,8-hexahydro-cycloheptapyrazole-3-carbonyl]-amino}-bicyclo[2.2.1]hept-5-ene-2-carboxylic acid ethyl ester], for which, on CB1 receptor [1], the “CB1 receptor binding average percent inhibition” value is listed as “^(5)37%”. Moreover, on CB2 receptor, the “CB2 receptor binding percent inhibition” value is 29%. Also, at CB1 receptor [2] (setting [3]), the EC50 worked out at 500 nM.
`COc1ccc(/C=C2\CCCCc3c(C(=O)N[C@H](CO)c4ccccc4)nn(-c4ccc(Cl)cc4Cl)c32)cc1` [Cpd 215, (8E)-1-(2,4-dichloro-phenyl)-8-(4-methoxy-benzylidene)-1,4,5,6,7,8-hexahydro-cycloheptapyrazole-3-carboxylic acid [(1S)-2-hydroxy-1-phenyl-ethyl]-amide]: on CB1 receptor [1], the IC50 is 10 nM. Besides, the inhibition at 0.2 µM on CB1 receptor [1] came to 88%; at CB2 receptor, 24%. At CB1 receptor [2] (setting [3]), the EC50 worked out at 10 nM.
As for `C[C@@H](NC(=O)c1nn(-c2ccc(S(N)(=O)=O)cc2)c2c1CCCC/C2=C\c1ccc(Cl)cc1)C1CCCCC1` [Cpd 185, (8E)-8-(4-chloro-benzylidene)-1-(4-sulfamoyl-phenyl)-1,4,5,6,7,8-hexahydro-cycloheptapyrazole-3-carboxylic acid [(1R)-1-cyclohexyl-ethyl]-amide], at CB1 receptor [1], the IC50 is 30 nM and the inhibition at 0.2 µM is 75%. Further, the inhibition at 0.2 µM at CB2 receptor was determined as 56%. At CB1 receptor [2] (setting [3]), the concentration giving a half-maximal response (EC50) is < 3 nM.

The record behind these values is patent publication US8378117B2 (priority 2005, dated 2013).
